Measurements taken from publication PMC5605198, “MELK is not necessary for the proliferation of basal-like breast cancer cells” (eLife, 2017).
pIC50: −log10 of the molar value. Where two headings read alike, the source gives them in different places. One block for each compound: values may come before it.

Key:
MELK [1] = target: T1, MELK (Homo sapiens, UniProt Q14680); assay: Inhibitor-induced MELK degradation, immunoblot; details: MDA-MB-468 cells; pretreatment carfilzomib (400 nM) or MLN4924 (1 μM) 4 hours, then MELK inhibitor 4 hours
T1 sequence (Q14680 whole entry): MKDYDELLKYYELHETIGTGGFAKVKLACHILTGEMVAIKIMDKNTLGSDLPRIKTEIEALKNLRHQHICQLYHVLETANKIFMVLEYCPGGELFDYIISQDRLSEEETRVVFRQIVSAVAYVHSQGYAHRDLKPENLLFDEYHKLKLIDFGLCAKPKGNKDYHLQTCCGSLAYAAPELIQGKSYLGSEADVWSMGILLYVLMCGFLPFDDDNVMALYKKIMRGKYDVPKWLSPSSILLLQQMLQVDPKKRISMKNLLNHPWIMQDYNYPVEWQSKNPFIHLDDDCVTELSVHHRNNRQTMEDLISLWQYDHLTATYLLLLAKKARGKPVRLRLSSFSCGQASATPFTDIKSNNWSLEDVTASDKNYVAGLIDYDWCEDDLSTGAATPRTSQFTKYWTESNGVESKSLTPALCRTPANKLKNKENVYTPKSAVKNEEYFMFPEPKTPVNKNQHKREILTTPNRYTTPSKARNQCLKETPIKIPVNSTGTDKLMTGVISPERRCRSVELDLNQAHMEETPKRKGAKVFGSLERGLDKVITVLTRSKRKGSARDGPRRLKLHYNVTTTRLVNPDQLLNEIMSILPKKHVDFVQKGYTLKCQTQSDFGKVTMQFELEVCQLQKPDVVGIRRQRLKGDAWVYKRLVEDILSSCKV

MELK [2] = target: T1, MELK; assay: Z’-LYTE enzymatic assay; assay type: biochemical
mTOR = mTOR (Homo sapiens, UniProt P42345); assay: Z’-LYTE enzymatic assay; details: Z’-LYTE assay at [ATP]=apparent Km; read-out: Biochemical IC50 mTOR
GSK3A = GSK3A (Homo sapiens, UniProt P49840); assay: Z’-LYTE enzymatic assay; details: Z’-LYTE assay at [ATP]=apparent Km; read-out: Biochemical IC50 GSK3A
Sequence of GSK3A (P49840 whole entry): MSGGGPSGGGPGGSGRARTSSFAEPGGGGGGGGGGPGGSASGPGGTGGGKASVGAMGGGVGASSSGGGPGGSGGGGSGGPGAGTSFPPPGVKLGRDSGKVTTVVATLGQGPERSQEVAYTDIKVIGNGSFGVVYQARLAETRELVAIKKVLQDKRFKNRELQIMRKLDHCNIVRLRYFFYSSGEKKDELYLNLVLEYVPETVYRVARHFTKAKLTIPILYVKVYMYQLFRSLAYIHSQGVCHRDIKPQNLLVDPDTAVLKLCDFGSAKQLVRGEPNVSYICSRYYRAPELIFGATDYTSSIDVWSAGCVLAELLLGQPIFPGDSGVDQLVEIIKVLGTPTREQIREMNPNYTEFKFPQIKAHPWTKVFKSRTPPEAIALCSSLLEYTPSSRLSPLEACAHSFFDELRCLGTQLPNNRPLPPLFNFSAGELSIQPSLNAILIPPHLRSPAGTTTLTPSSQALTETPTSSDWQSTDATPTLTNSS

CDK7 = CDK7 (Homo sapiens, UniProt P50613); assay: Adapta kinase assay; details: Adapta assay at [ATP]=apparent Km; read-out: Biochemical IC50 CDK7
Sequence of CDK7 (P50613 whole entry): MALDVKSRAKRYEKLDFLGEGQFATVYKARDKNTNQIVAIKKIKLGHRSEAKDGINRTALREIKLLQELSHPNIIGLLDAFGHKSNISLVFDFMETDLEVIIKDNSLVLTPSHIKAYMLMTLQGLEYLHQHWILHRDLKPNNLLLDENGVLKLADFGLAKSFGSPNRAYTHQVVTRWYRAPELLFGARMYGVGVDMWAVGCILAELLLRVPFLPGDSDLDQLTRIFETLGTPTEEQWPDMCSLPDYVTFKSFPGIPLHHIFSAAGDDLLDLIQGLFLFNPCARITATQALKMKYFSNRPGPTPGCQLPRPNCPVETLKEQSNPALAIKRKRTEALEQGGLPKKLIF
Sequence of CDK7 (P51946 whole entry partner): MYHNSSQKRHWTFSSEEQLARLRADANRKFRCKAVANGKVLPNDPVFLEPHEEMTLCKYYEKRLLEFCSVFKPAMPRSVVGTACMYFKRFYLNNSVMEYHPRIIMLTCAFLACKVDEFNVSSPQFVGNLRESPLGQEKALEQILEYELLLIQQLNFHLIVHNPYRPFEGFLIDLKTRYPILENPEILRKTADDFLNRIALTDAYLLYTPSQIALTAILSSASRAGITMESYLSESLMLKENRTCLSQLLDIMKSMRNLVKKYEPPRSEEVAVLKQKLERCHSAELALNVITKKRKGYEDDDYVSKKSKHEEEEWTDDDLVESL
Sequence of CDK7 (P51948 whole entry partner): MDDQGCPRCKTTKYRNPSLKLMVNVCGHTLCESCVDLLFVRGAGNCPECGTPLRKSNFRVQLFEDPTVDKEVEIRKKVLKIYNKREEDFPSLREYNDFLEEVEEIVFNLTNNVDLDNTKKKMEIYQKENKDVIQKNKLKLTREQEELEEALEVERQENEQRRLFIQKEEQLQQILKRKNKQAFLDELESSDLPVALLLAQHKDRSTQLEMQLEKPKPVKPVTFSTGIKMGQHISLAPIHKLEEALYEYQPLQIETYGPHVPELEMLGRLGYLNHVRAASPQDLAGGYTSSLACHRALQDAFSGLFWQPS

MELK [3] = target: T1, MELK; assay: KINOMEscan MELK pull-down; assay type: binding
Description: Based on biochemical (KINOMEscan) and cellular (KiNativ) kinase profiling of our in-house library of structurally diverse ATP-competitive kinase inhibitors, we identified several chemotypes that were prioritized for further characterization and development. In particular, we focused on JW-7-25-1 (Figure 1A), a benzonaphthyridinone derivative that inhibited MELK pull-down by 100% (KINOMEscan) at 10 μM.

MDA-MB-468 = assay: Cell proliferation assay (CellTiter-Glo); details: Homo sapiens
BT-549 = assay: Cell proliferation assay (CellTiter-Glo); details: Homo sapiens
HCC70 = assay: Cell proliferation assay (CellTiter-Glo); details: Homo sapiens
ZR-75-1 = assay: Cell proliferation assay (CellTiter-Glo); details: Homo sapiens, ZR-75-1, 72 h, read-out: 3-day antiproliferative IC50
MCF7 = assay: Cell proliferation assay (CellTiter-Glo); details: Homo sapiens
T-47D = assay: Cell proliferation assay (CellTiter-Glo); details: Homo sapiens, T47D
[4] = system: MDA-MB-468 (second source); assay: Cell proliferation assay (CellTiter-Glo); details: Homo sapiens, MDA-MB-468, 168 h, read-out: 7-day antiproliferative IC50
FKBP12^F36V-MELK(sg3R) = assay: dTAG-induced degradation, immunoblot; assay type: cell-based; details: MELK−/− MDA-MB-468-FKBP12^F36V-MELK(sg3R) cells; for duration of sustained degradation of FKBP12^F36V-MELK(sg3R): 500 nM
Description: (§1) Four dTAG molecules (7, 13, 36 and 47) that vary in linker length and chemical structure were tested for their efficiency at depleting FKBP12^F36V-MELK(sg3R) (Figure 4A, Figure 4—figure supplement 3).
Figure 4. […] (A) Chemical structure of heterobifunctional dTAG molecule dTAG-47. See also Figure 4—figure supplement 3 for the chemical structures of dTAG-7, dTAG-13 and dTAG-36. (B) Immunoblots for MELK and GAPDH after treatment of dTAG-7, 13, 36, and 47 at indicated concentrations in MELK−/− MDA-MB-468-FKBP12^F36V-MELK(sg3R) cells for 4 hours. See Figure 4—figure supplement 1 for details of the generation of MELK−/− MDA-MB-468-FKBP12^F36V-MELK(sg3R) clones. (C) Same as in 4B, but with treatment at 500 nM and extended treatment times for 14, 24, 48, and 72 hours. (D) Changes in abundance of 7270 proteins (peptide count ≥2) comparing MELK−/− MDA-MB-468-FKBP12^F36V-MELK cells treated with dTAG-7 (250 nM) or DMSO for 1 hour, versus p-value (dTAG-7: triplicate, DMSO: duplicate, limma moderated t-test). See also Figure 4—source datas 1 and 2 for the original and the processed data. (E) Crystal violet staining image showing parental MDA-MB-468 cells and MELK−/− MDA-MB-468-FKBP12^F36V-MELK(sg3R) cells after treatment with DMSO or 500 nM of dTAG-47 for 9 days. Immunoblots showing MELK and GAPDH from a duplicate plate on Day 9 confirmed sustained depletion of FKBP12^F36V-MELK(sg3R). These are representative data from one of two independent experiments. Figure 4—source data 1. Raw integrated ion intensities from quantitative multiplexed proteomics. Figure 4—source data 2. Processed Data and Statistical Analysis by limma (topTable). Figure 4—figure supplement 1. Single clones selected from MDA-MB-468-FKBP12^F36V-MELK(sg3R) cells subject to CRISPR/Cas9-mediated knockout of endogenous MELK. Immunoblots for MELK and GAPDH in single cell clones selected from MDA-MB-468-FKBP12^F36V-MELK(sg3R) transfected with Cas9/sgMELK-3 to knockout endogenous MELK. Clone 1D4 is clone 1 and clone 1A3 is clone 2 in Figure 4. Clone 1D4 was confirmed with heterozygous −1 and +1 indels; clone 1A3 was confirmed with homozygous −1 deletions. [drawing 5] Figure 4—figure supplement 2. […] (A) Immunoblots for MELK, cyclin B1 and GAPDH in asynchronous versus M-phase arrested MDA-MB-468 cells and MDA-MB-468-FKBP12^F36V-MELK(sg3R) cells (clone 1). […] Chemical structures of dTAG molecules. FKBP12^F36V-binding ligands conjugated by variable linkers to thalidomide or pomalidomide, including (A) dTAG-7, (B) dTAG-13 and (C) dTAG-36 are capable of inducing degradation of FKBP12^F36V-tagged proteins of interest. [drawing 7]

Flt3 = system: Flt3; set-up: method as in Johnson et al., 2015; details: ref Johnson et al., 2015; cited from earlier work
[5] = system: MELK−/− MDA-MB-468-FKBP12^F36V-MELK(sg3R) cells; assay: 9-day proliferation assay, crystal violet staining; assay type: cell-based; details: 500 nM, 9 days, two clones
Description: as §1
Figure 4. […] (A) Chemical structure of heterobifunctional dTAG molecule dTAG-47. See also Figure 4—figure supplement 3 for the chemical structures of dTAG-7, dTAG-13 and dTAG-36. (B) Immunoblots for MELK and GAPDH after treatment of dTAG-7, 13, 36, and 47 at indicated concentrations in MELK−/− MDA-MB-468-FKBP12^F36V-MELK(sg3R) cells for 4 hours. See Figure 4—figure supplement 1 for details of the generation of MELK−/− MDA-MB-468-FKBP12^F36V-MELK(sg3R) clones. (C) Same as in 4B, but with treatment at 500 nM and extended treatment times for 14, 24, 48, and 72 hours. (D) Changes in abundance of 7270 proteins (peptide count ≥2) comparing MELK−/− MDA-MB-468-FKBP12^F36V-MELK cells treated with dTAG-7 (250 nM) or DMSO for 1 hour, versus p-value (dTAG-7: triplicate, DMSO: duplicate, limma moderated t-test). See also Figure 4—source datas 1 and 2 for the original and the processed data. (E) Crystal violet staining image showing parental MDA-MB-468 cells and MELK−/− MDA-MB-468-FKBP12^F36V-MELK(sg3R) cells after treatment with DMSO or 500 nM of dTAG-47 for 9 days. […] Raw integrated ion intensities from quantitative multiplexed proteomics. […]

[6] = MDA-MB-468, 72 h, read-out: 3-day antiproliferative IC50
[7] = MDA-MB-468, 168 h, read-out: 7-day antiproliferative IC50
[8] = BT-549, 72 h, read-out: 3-day antiproliferative IC50
[9] = BT-549, 168 h, read-out: 7-day antiproliferative IC50
[10] = HCC70, 72 h, read-out: 3-day antiproliferative IC50
[11] = HCC70, 168 h, read-out: 7-day antiproliferative IC50
[12] = MCF7, 72 h, read-out: 3-day antiproliferative IC50
[13] = 72 h, read-out: 3-day antiproliferative IC50
[14] = 168 h, read-out: 7-day antiproliferative IC50

SMILES: NS(=O)(=O)OC[C@@H]1C[C@@H](n2ccc3c(N[C@H]4CCc5ccccc54)ncnc32)C[C@@H]1O [MLN4924]
rescue of inhibitor-induced MELK degradation by pretreatment (MELK [1]): minimal effect

SMILES: O=c1ccc2cnc3ccc(-c4ccc(O)cc4)cc3c2n1-c1ccc(N2CCNCC2)c(C(F)(F)F)c1 [JW-7-25-1]
pIC50 (MELK [2]; Z’-LYTE assay at [ATP]=apparent Km, read-out: Biochemical IC50 MELK): 8.30
pIC50 (mTOR): 8.26
pIC50 (GSK3A): 7.91
pIC50 (CDK7): 7.20
inhibition at 10 µM (MELK [3]): 100%

SMILES: CCC(C(=O)N1CCCCC1C(=O)OC(CCc1ccc(OC)c(OC)c1)c1ccccc1OCC(=O)NCCCCCCOc1cccc2c1C(=O)N(C1CCC(=O)NC1=O)C2=O)c1cc(OC)c(OC)c(OC)c1 (stereo not shown) [dTAG-13]
duration of sustained degradation of FKBP12^F36V-MELK(sg3R) (FKBP12^F36V-MELK(sg3R)): up to 72 hours
time to efficient depletion of FKBP12^F36V-MELK(sg3R) (FKBP12^F36V-MELK(sg3R)): ≤ 4 h

SMILES: COc1cc(-c2cn[nH]c2)ccc1C(=O)Nc1ccc2c(c1)CCNCC2 [MELK-T1]
pIC50 (Flt3): 7.74
pIC50 (MDA-MB-468; [6]): < 5.00
pIC50 (ZR-75-1): < 5.00

SMILES: CC[C@H](C(=O)N1CCCC[C@H]1C(=O)O[C@H](CCc1ccc(OC)c(OC)c1)c1ccccc1OCC(=O)NCCCCCCCCNc1ccc2c(c1)C(=O)N(C1CCC(=O)NC1=O)C2=O)c1cc(OC)c(OC)c(OC)c1 (stereo partly drawn) [dTAG-47, (2S)-(1R)−3-(3,4-dimethoxyphenyl)−1-(2-(2-((8-((2-(2,6-dioxopiperidin-3-yl)−1,3-dioxoisoindolin-5-yl)amino)octyl)amino)−2-oxoethoxy)phenyl)propyl 1-((S)−2-(3,4,5-trimethoxyphenyl)butanoyl)piperidine-2-carboxylate]
duration of sustained degradation of FKBP12^F36V-MELK(sg3R) (FKBP12^F36V-MELK(sg3R)): up to 72 hours
time to efficient depletion of FKBP12^F36V-MELK(sg3R) (FKBP12^F36V-MELK(sg3R)): ≤ 4 h
growth in 9-day proliferation assay [5]: neither of the FKBP12^F36V-MELK(sg3R) MELK−/− clones exhibited growth impairment

SMILES: CC[C@H](C(=O)N1CCCC[C@H]1C(=O)O[C@H](CCc1ccc(OC)c(OC)c1)c1ccccc1OCC(=O)NCCCCCCCCNc1cccc2c1C(=O)N(C1CCC(=O)NC1=O)C2=O)c1cc(OC)c(OC)c(OC)c1 (stereo partly drawn) [dTAG-36, (2S)-(1R)−3-(3,4-dimethoxyphenyl)−1-(2-(2-((8-((2-(2,6-dioxopiperidin-3-yl)−1,3-dioxoisoindolin-4-yl)amino)octyl)amino)−2-oxoethoxy)phenyl)propyl 1-((S)−2-(3,4,5-trimethoxyphenyl)butanoyl)piperidine-2-carboxylate]
duration of sustained degradation of FKBP12^F36V-MELK(sg3R) (FKBP12^F36V-MELK(sg3R)): up to 72 hours
time to efficient depletion of FKBP12^F36V-MELK(sg3R) (FKBP12^F36V-MELK(sg3R)): ≤ 4 h

Further lines, with some results ahead:

pIC50 (MDA-MB-468; [6]): 6.24
pIC50 (MDA-MB-468; [7]): 6.80
pIC50 (BT-549; [8]): 6.40
pIC50 (BT-549; [9]): 6.51
pIC50 (MCF7; [12]): 6.36
pIC50 (T-47D; [13]): 5.23
pIC50 (T-47D; [14]): 6.21
pIC50 [4]: 6.04
SMILES: CC1(C)C(=O)N([C@H]2CCc3c(O)cccc32)c2nc(Nc3cccc(CN4CCCC4)c3)ncc21 [MRT199665]
pIC50 (HCC70; [10]): 6.41
pIC50 (HCC70; [11]): 7.12
pIC50 (ZR-75-1): 5.32

rescue of inhibitor-induced MELK degradation by pretreatment (MELK [1]): prevented degradation
SMILES: CC(C)C[C@H](NC(=O)[C@H](CCc1ccccc1)NC(=O)CN1CCOCC1)C(=O)N[C@@H](Cc1ccccc1)C(=O)N[C@@H](CC(C)C)C(=O)[C@@]1(C)CO1 [carfilzomib]

pIC50 (MELK [2]; Biochemical IC50 MELK, Z’-LYTE assay at [ATP]=apparent Km): 7.92
pIC50 (MELK [2]; Note: MELK IC50, note column of Table 3): 7.92
pIC50 (MELK [2]; Potency (MELK), measured by Z’LYTE biochemical assay, class symbols in Figure 2C): > 7.70
pIC50 (MDA-MB-468; [6]): 5.27
pIC50 (MDA-MB-468; [7]): 5.53
pIC50 (BT-549; [8]): 5.09
pIC50 (BT-549; [9]): 5.30
pIC50 (MCF7; [12]): 5.22
pIC50 (MCF7; MCF7, 168 h, read-out: 7-day antiproliferative IC50): 5.55
pIC50 (T-47D; [13]): < 5.00
pIC50 (T-47D; [14]): 5.31
pIC50 [4]: 5.08
SMILES: CN1CCN(c2ccc(-n3cc(-c4ccncc4OCC4CCNCC4)cn3)cc2)CC1 [NVS-MELK8a]
pIC50 (HCC70; [10]): 5.22
pIC50 (HCC70; [11]): 5.38
pIC50 (ZR-75-1): < 5.00
